Key:
[1] = Stability of ready-to-use PAA solution, pH adjusted with disodium phosphate, with or without chelant, heated at 56° C. for one hour; format: physicochemical; conditions: initial PAA 0.35%, water hardness 200 ppm, pH 5 with disodium phosphate
Text: (§1) In these studies, peracetic acid (PAA) was combined with hard water having a water hardness of 200 parts per million (“ppm”) such that the resulting solution included a 0.35% concentration of PAA. The pH of the solution was adjusted to 5 using a pH modifier. In a first batch of the solution, the pH modifier used was ethanolamine. In a second batch of the solution, the pH modifier used was disodium phosphate. Test specimens from these two batches were created by individually adding chelants thereto. The chelants used in these studies are those used for removing ions (e.g. Calcium and Magnesium) from hard water, and included tetrasodium EDTA, TRILON® M (methylglycinediacetic acid trisodium salt (MGDA-Na3)), TRILON® C (diethylenetriaminepentaacetic acid pentasodium salt (DTPA-Na5)), sodium citrate, and DISSOLVINE® GL (glutamic acid diacetic acid tetrasodium salt (GLDA-Na4)). Test specimens from these two batches were also created that lacked any such chelants. In some instances, test specimens were created for different concentrations of certain of these chelants. Table 1 reflects test specimens made from the first batch of the solution. Table 2 reflects test specimens made from the second batch of the solution. The tables also reflect the concentration of each chelant in each specimen as a percentage. Each specimen was heated at 56° C. for one hour. At the end of the hour, the PAA concentration was determined. The final concentration of PAA is provided in Table 1 and Table 2 alongside the change in the PAA concentration as determined at the end of the hour (“Δ PAA %”).

[2] = Stability of ready-to-use PAA solution, pH adjusted with ethanolamine, with or without chelant, heated at 56° C. for one hour; format: physicochemical; conditions: initial PAA 0.35%, water hardness 200 ppm, pH 5 with ethanolamine
Text: as §1

Row | Compound | Final PAA Concentration (%) ([1]; chelant concentration 0.2%) | Δ PAA % ([1]; chelant concentration 0.2%) [%] | Final PAA Concentration (%) ([1]; chelant concentration 0.6%) | Δ PAA % ([1]; chelant concentration 0.6%) [%] | Final PAA Concentration (%) ([2]; chelant concentration 0.2%) | Δ PAA % ([2]; chelant concentration 0.2%) [%] | Final PAA Concentration (%) ([2]; chelant concentration 0.6%) | Δ PAA % ([2]; chelant concentration 0.6%) [%] | Final PAA Concentration (%) ([1]; chelant concentration 0.1%) | Δ PAA % ([1]; chelant concentration 0.1%) [%] | Final PAA Concentration (%) ([1]; chelant concentration 0.4%) | Δ PAA % ([1]; chelant concentration 0.4%) [%] | Final PAA Concentration (%) ([2]; chelant concentration 0.1%) | Δ PAA % ([2]; chelant concentration 0.1%) [%] | Final PAA Concentration (%) ([2]; chelant concentration 0.4%) | Δ PAA % ([2]; chelant concentration 0.4%) [%]
1 | O=C([O-])CC[C@@H](C(=O)[O-])N(CC(=O)[O-])CC(=O)[O-].[Na+].[Na+].[Na+].[Na+] [Dissolvine (liquid), glutamic acid diacetic acid tetrasodium salt] | 0.29 | −17 | 0.25 | −29 | 0.23 | −34 | 0.17 | −51 |  |  |  |  |  |  |  | 
2 | O=C([O-])CN(CCN(CC(=O)[O-])CC(=O)[O-])CC(=O)[O-].[Na+].[Na+].[Na+].[Na+] [Na4EDTA, tetrasodium EDTA, reference compound] |  |  |  |  |  |  |  |  | 0.28 | −20 | 0.18 | −49 | 0.21 | −40 | 0.14 | −60
3 | O=C([O-])CN(CCN(CC(=O)[O-])CC(=O)[O-])CCN(CC(=O)[O-])CC(=O)[O-].[Na+].[Na+].[Na+].[Na+].[Na+] [Trilon C (liquid), diethylenetriaminepentaacetic acid pentasodium salt] | 0.26 | −26 |  |  | 0.22 | −37 |  |  |  |  |  |  |  |  |  | 
4 | CC(C(=O)[O-])N(CC(=O)[O-])CC(=O)[O-].[Na+].[Na+].[Na+] (stereo not drawn) [Trilon M (liquid), methylglycinediacetic acid trisodium salt] | 0.3 | −14 | 0.26 | −26 |  |  | 0.19 | −46 |  |  |  |  |  |  |  | 
5 | O=C([O-])CC(O)(CC(=O)[O-])C(=O)[O-].[Na+].[Na+].[Na+] [sodium citrate, reference compound] |  |  |  |  |  |  |  |  |  |  | 0.26 | −26 |  |  | 0.23 | −34
